Experimental findings from ChEMBL document CHEMBL1150022, “O-benzyl hydroxyproline as a bioisostere for Phe-Pro: Novel dipeptide thrombin inhibitors” (Bioorg Med Chem Lett, 1996) are described below.

Where a SMILES comes first, the peptide text is derived from it. [ ]: non-standard residue; d: D form. The star is where a group is joined. Hydrocinnamoyl = O=C(CCc1ccccc1)*; Hyp = O=C(O)[C@@H]1C[C@@H](O)CN1; Propionyl = CCC(=O)*; Bn = c1ccc(C*)cc1; Ms = CS(=O)(=O)*; CH2Cl = ClC*

Broadly, the IC50 is the concentration that inhibits the measured activity by half. A lower IC50 goes with greater potency.

The assay has as its target Prothrombin (Homo sapiens, UniProt P00734). Nature of the assay: Inhibition of thrombin.
With `CC(=O)N1C[C@H](OCC2CCCCC2)C[C@H]1C(=O)N[C@@H](CCCN=C(N)N)C(=O)CCl`, the IC50 stood at 0.0049 µM.

`CC(=O)N1C[C@@H](OCc2ccccc2)C[C@H]1C(=O)N[C@@H](CCCNC(=N)N)C(=O)CCl` displayed an IC50 of 4.6 µM. Compared with the last compound, the IC50 is about 940-fold higher. The figure for `CC(=O)N1CCC[C@H]1C(=O)N[C@@H](CCCN=C(N)N)C(=O)CCl` (Ac-Pro-Arg-CH2Cl) is 1.35 µM; for `NC(N)=NCCC[C@H](NC(=O)[C@@H]1C[C@@H](OCc2ccccc2)CN1C(=O)[C@H](N)Cc1ccccc1)C(=O)CCl` it is 0.003 µM; for `CC(=O)N1C[C@H](OCCC(c2ccccc2)c2ccccc2)C[C@H]1C(=O)N[C@@H](CCCN=C(N)N)C(=O)CCl` it is 0.01 µM.

On to `N=C(N)NCCC[C@H](NC(=O)[C@@H]1CCCN1C(=O)[C@H](N)Cc1ccccc1)C(=O)CCl`, for which 0.0015 µM corresponded to half-maximal inhibition (IC50). Against the preceding compound, the IC50 is about 6.7-fold lower.

`CCC(=O)N1C[C@H](OCc2ccccc2)C[C@H]1C(=O)N[C@@H](CCCN=C(N)N)C(=O)CCl` (Propionyl-[Hyp](Bn)-Arg-CH2Cl) registered a half-maximal inhibitory concentration (IC50) of 0.013 µM. As to `CC(=O)N1C[C@H](OCc2ccccc2)C[C@H]1C(=O)N[C@@H](CCCNC(=N)N)C(=O)CCl`, the half-maximal inhibitory concentration (IC50) came out at 0.0009 µM. The figure for `CCCCO[C@@H]1C[C@@H](C(=O)N[C@@H](CCCNC(=N)N)C(=O)CCl)N(C(C)=O)C1` is 0.0216 µM; for `CCN1C[C@H](OCc2ccccc2)C[C@H]1C(=O)N[C@@H](CCCNC(=N)N)C(=O)CCl` it is 8.6 µM; for `N=C(N)NCCC[C@H](NC(=O)[C@@H]1C[C@H](OCc2ccccc2)CN1C(=O)[C@H](N)Cc1ccccc1)C(=O)CCl` it is 0.0072 µM.

`CC(=O)N1C[C@H](OCCCc2ccccc2)C[C@H]1C(=O)N[C@@H](CCCN=C(N)N)C(=O)CCl`: the IC50 amounted to 0.014 µM. The compound `N=C(N)NCCC[C@H](NC(=O)[C@@H]1C[C@@H](OCc2ccccc2)CN1C(=O)CCc1ccccc1)C(=O)CCl` (Hydrocinnamoyl-[Hyp](Bn)-Arg-CH2Cl) gave an IC50 of 0.0317 µM. This IC50 lies about 2.3-fold higher than the previous one. As for `CC(=O)N1C[C@H](CCc2ccccc2)C[C@H]1C(=O)N[C@@H](CCCN=C(N)N)C(=O)CCl`, the figure is 0.04 µM; as for `CS(=O)(=O)N1C[C@H](OCc2ccccc2)C[C@H]1C(=O)N[C@@H](CCCNC(=N)N)C(=O)CCl` (Ms-[Hyp](Bn)-Arg-CH2Cl), 0.024 µM.
